Test results from publication PMC9763333, “In vitro characterization of immune modulating drug-eluting immunobeads towards transarterial embolization in cancer” (Scientific Reports, 2022).
Several values for one entry are separate records, joined by “and”; a condition that tells them apart may be missing. Equal entries are not always repeated. Entries after “also recorded” stand apart in the source; their conditions may differ. Structures can show the parent of a compound that is named as a salt.

Key:
[1] = Drug solubilization by salt formation in acid; format: physicochemical; conditions: for pH at which each drug dissolved for loading: T in °C in parentheses in the cell (20.1 or 21.1)
Procedure, shortened: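 Drug base suspended in water and titrated with 0.1 N HCl until dissolved, at a final 2.5 mg/mL; solution lyophilized to the hydrochloride salt or used directly for DC Bead LUMI loading. GS-9620 and its decomposition product analyzed by C8 reversed-phase HPLC (UV 230 nm) and LC/MS.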

[2] = Drug loading into DC Bead LUMI; format: physicochemical; conditions: for Relative percent drug loaded in DC Bead LUMI over time / Maximum drug loaded (Triplicate), %: single replicates; for equivalent of drug loaded to sulfonated bead / Maximum drug loaded: mean ± SD; for Maximum drug loaded: n = 3, base form except Dox (salt form); for Drug: sulfonate: molar ratio at maximum loading; for Theoretical maximum loading level based on SO3− contents: per mL DC Bead LUMI, assuming 1:1 drug to sulfonate
Procedure, shortened: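 Loading done in triplicate; amount loaded = initial drug in loading solution minus drug remaining and cumulative drug withdrawn for sampling. Maximum loading taken when loading-solution concentration stopped changing, before washing; relative % loading expressed on a molar basis against available SO3^- ions, mean ± SD.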

[3] = Drug release from DC Bead LUMI in saline; format: physicochemical; conditions: for percent drug eluted from DC Bead LUMI / drug eluted from DC Bead LUMI: saline, single replicates; for percent drug eluted from DC Bead LUMI: percent of drug loaded; for release behaviour in saline: DC Bead LUMI
Procedure, shortened: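 Beads loaded with drug (62.5 µL of DC Bead LUMI) were placed in 50 mL of saline (0.9 mg/mL, pH 7.4) and rocked upright at 37 °C at speed setting 10 (70 rpm). At each sampling time, 1 mL of medium was taken for drug quantification and replaced with 1 mL of fresh saline pre-warmed to 37 °C. Cumulative release accounted for drug removed in earlier samples, and the 50 mL volume kept sink conditions.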

[4] = cited from earlier work
[5] = Drug loading into LC Bead; format: physicochemical; conditions: per 1 mL LC Bead
Method: Drug loading was performed in triplicate as previously reported[45] with slight modifications. Briefly, 1.3 molar equivalent of each drug was mixed with one molar equivalent of sulfonate group of DC Bead LUMI or LC Bead. The drug-bead mixture was agitated with upright rocking motion at a set maximum rocking speed of 10 which corresponds to 70 rpm, for 144 h at ambient temperature (Ward's® Rotating Mixers, VWR, Bridgeport, NJ). At specified time points (5, 15, 30 and 45 min and then hourly for eight hours followed by 24, 48, 72 and 144 h) a 10 µL aliquot was withdrawn from the loading solution to quantify drug loading based on the change in concentration over time. […] The concentration of drug in each aliquot of loading solution at each time point was quantified by HPLC as described above using a linear standard curve obtained from solutions of known concentration of each drug (7.8–125 μg/mL) versus the detector response as area under the curve. The amount of drug loaded at the specified time points was calculated by subtracting the amount of drug remaining from the initial amount of drug in the loading solution and the cumulative amount of drug withdrawn for sampling. The maximum drug loaded in the beads was calculated once no further change in the concentration in the loading solution could be measured and before washing the beads. […]

[6] = parameters: method as in PMID 28188808; conditions: 0.065 mmol Dox per milliliter of beads, constant agitation, depending on bead size; cited from earlier work
[7] = parameters: method as in PMID 17483878; conditions: cited from earlier work

## COc1nc(OCc2cccc(-c3ccccc3)c2C)ccc1CNCCNC(C)=O [BMS-202]
[1]; 0.1 N HCl, deionized water
  solubilization upon addition of 0.1 N HCl: did not solubilize
[1]
  pH at which each drug dissolved for loading: 2.11 (20.1)
[2]; 5 min
  Relative percent drug loaded in DC Bead LUMI over time: 36.8467% and 31.5632% and 21.322%
[2]; 15 min
  Relative percent drug loaded in DC Bead LUMI over time: 30.3231% and 39.2476% and 47.138%
[2]; 30 min
  Relative percent drug loaded in DC Bead LUMI over time: 47.9681% and 46.426% and 44.5676%
[2]; 45 min
  Relative percent drug loaded in DC Bead LUMI over time: 56.9526% and 51.0915% and 54.8687%
[2]; 60 min
  Relative percent drug loaded in DC Bead LUMI over time: 63.8406% and 58.0947% and 63.6687%
[2]; 120 min
  Relative percent drug loaded in DC Bead LUMI over time: 85.531% and 84.4265% and 85.0145%
[2]; 180 min
  Relative percent drug loaded in DC Bead LUMI over time: 98.296% and 98.7957% and 94.8002%
[2]; 240 min
  Relative percent drug loaded in DC Bead LUMI over time: 106.342% and 112.145% and 106.321%
[2]; 300 min
  Relative percent drug loaded in DC Bead LUMI over time: 111.107% and 116.727% and 112.613%
[2]; 360 min
  Relative percent drug loaded in DC Bead LUMI over time: 115.109% and 120.479% and 108.292%
[2]; 420 min
  Relative percent drug loaded in DC Bead LUMI over time: 117.263% and 122.293% and 119.836%
[2]; 480 min
  Relative percent drug loaded in DC Bead LUMI over time: 118.462% and 124.442% and 121.713%
[2]; 1440 min
  Relative percent drug loaded in DC Bead LUMI over time: 121.282% and 124.78% and 117.021%
[2]; 2880 min
  Relative percent drug loaded in DC Bead LUMI over time: 119.234% and 124.78% and 122.668%
[2]; 4320 min
  Relative percent drug loaded in DC Bead LUMI over time: 118.18% and 124.96% and 121.21%
[2]; 8640 min
  Relative percent drug loaded in DC Bead LUMI over time: 119.5% and 124.96% and 122.329%
[2]; DC Bead LUMI
  drug loaded above the predicted capacity of the bead: approximately 23%
  loading behaviour: slower loading
  equivalent of drug loaded to sulfonated bead: 0.35 ± 0.01 mM drug/ml beads
  Maximum drug loaded: 148.05 ± 2.24 mg drug/ml beads
  Drug: sulfonate: 1.223
[2]; DC Bead LUMI, mean (n = 3), listed as BMS-200
  Relative percent drug loaded (maximum, percent of SO3− available on a molar basis): 122.93%
[2]; DC Bead LUMI, listed as BMS-200
  Maximum drug loaded (Triplicate), %: 121.282% and 124.83% and 122.668%
[2]
  Theoretical maximum loading level based on SO3− contents: 120.40 mg and 120.4 mg
[3]; 5 min
  percent drug eluted from DC Bead LUMI: 2.472% and 2.4176% and 2.385%
  drug eluted from DC Bead LUMI: 8.513 µmol and 8.629 µmol and 8.378 µmol
[3]; 15 min
  percent drug eluted from DC Bead LUMI: 2.589% and 2.639% and 2.416%
  drug eluted from DC Bead LUMI: 8.915 µmol and 9.4174 µmol and 8.488 µmol
[3]; 30 min
  percent drug eluted from DC Bead LUMI: 2.762% and 2.728% and 2.934%
  drug eluted from DC Bead LUMI: 9.513 µmol and 9.737 µmol and 10.3104 µmol
[3]; 45 min
  percent drug eluted from DC Bead LUMI: 3.33% and 2.98% and 3.1337%
  drug eluted from DC Bead LUMI: 11.4676 µmol and 10.637 µmol and 11.0105 µmol
[3]; 60 min
  percent drug eluted from DC Bead LUMI: 3.248% and 3.3497% and 3.385%
  drug eluted from DC Bead LUMI: 11.1858 µmol and 11.9555 µmol and 11.8939 µmol
[3]; 120 min
  percent drug eluted from DC Bead LUMI: 4.556% and 3.526% and 4.046%
  drug eluted from DC Bead LUMI: 15.688 µmol and 12.584 µmol and 14.2155 µmol
[3]; 180 min
  percent drug eluted from DC Bead LUMI: 5.055% and 4.61% and 4.461%
  drug eluted from DC Bead LUMI: 17.4074 µmol and 16.4551 µmol and 15.6742 µmol
[3]; 240 min
  percent drug eluted from DC Bead LUMI: 5.272% and 4.993% and 5.201%
  drug eluted from DC Bead LUMI: 18.1541 µmol and 17.8191 µmol and 18.2734 µmol
[3]; 300 min
  percent drug eluted from DC Bead LUMI: 5.575% and 5.37% and 5.345%
  drug eluted from DC Bead LUMI: 19.198 µmol and 19.1657 µmol and 18.7818 µmol
[3]; 360 min
  percent drug eluted from DC Bead LUMI: 6.559% and 5.753% and 6.275%
  drug eluted from DC Bead LUMI: 22.5859 µmol and 20.5327 µmol and 22.0468 µmol
[3]; 420 min
  percent drug eluted from DC Bead LUMI: 6.666% and 5.904% and 7.0124%
  drug eluted from DC Bead LUMI: 22.954 µmol and 21.073 µmol and 24.6387 µmol
[3]; 480 min
  percent drug eluted from DC Bead LUMI: 7.32% and 7.2% and 7.286%
  drug eluted from DC Bead LUMI: 25.2083 µmol and 25.6984 µmol and 25.5995 µmol
[3]; 1440 min
  percent drug eluted from DC Bead LUMI: 11.7204% and 10.5374% and 10.9377%
  drug eluted from DC Bead LUMI: 40.3605 µmol and 37.6096 µmol and 38.4305 µmol
[3]; 2880 min
  percent drug eluted from DC Bead LUMI: 14.9312% and 14.241% and 13.8435%
  drug eluted from DC Bead LUMI: 51.4172 µmol and 50.828 µmol and 48.6405 µmol
[3]; 4320 min
  percent drug eluted from DC Bead LUMI: 16.6252% and 15.679% and 15.9706%
  drug eluted from DC Bead LUMI: 57.2509 µmol and 55.9606 µmol and 56.1142 µmol
[3]; 8640 min
  percent drug eluted from DC Bead LUMI: 17.1401% and 16.2829% and 16.6995%
  drug eluted from DC Bead LUMI: 59.0238 µmol and 58.1158 µmol and 58.6753 µmol
[3]
  release behaviour in saline: slow release; also recorded: prolonged release profile
[4]
  pKa (literature): 7.74 (literature) [54]

## COc1cccc2c1C(=O)c1c(O)c3c(c(O)c1C2=O)C[C@@](O)(C(=O)CO)C[C@@H]3O[C@H]1C[C@H](N)[C@H](O)[C@H](C)O1 [Dox, doxorubicin hydrochloride]
[1]
  pH at which each drug dissolved for loading: 4.2 (21.1)
[2]; DC Bead LUMI
  drug loaded above the predicted capacity of the bead: approximately 23%
  loading behaviour: slower loading
  equivalent of drug loaded to sulfonated bead: 0.35 ± 0.01 mM drug/ml beads
  Maximum drug loaded: 204.54 ± 3.87 mg drug/ml beads and 205 ± 4 mg drug/ml beads
  Maximum drug loaded (Triplicate), %: 121.32% and 125.547% and 121.757%
  Drug: sulfonate: 1.228
[2]; DC Bead LUMI, listed as Doxorubicin HCl
  Maximum drug loaded: 204.54 ± 3.87 mg drug/ml beads
[2]
  Theoretical maximum loading level based on SO3− contents: 166.50 mg
[2]; listed as Doxorubicin HCl
  Theoretical maximum loading level based on SO3− contents: 166.5 mg
[5]
  average amount of Dox loaded into 1 mL of LC Bead: 33.58 ± 3.08 mg
[3]; 5 min
  drug eluted from DC Bead LUMI: 0.8697 µmol and 0.7574 µmol and 0.6743 µmol
[3]; 15 min
  drug eluted from DC Bead LUMI: 0.9785 µmol and 0.9763 µmol and 0.879 µmol
[3]; 30 min
  drug eluted from DC Bead LUMI: 1.239 µmol and 1.282 µmol and 1.112 µmol
[3]; 45 min
  drug eluted from DC Bead LUMI: 1.546 µmol and 1.5359 µmol and 1.496 µmol
[3]; 60 min
  drug eluted from DC Bead LUMI: 1.899 µmol and 1.906 µmol and 1.678 µmol
[3]; 120 min
  drug eluted from DC Bead LUMI: 3.985 µmol and 3.46 µmol and 3.165 µmol
[3]; 180 min
  drug eluted from DC Bead LUMI: 6.141 µmol and 6.4405 µmol and 5.733 µmol
[3]; 240 min
  drug eluted from DC Bead LUMI: 7.976 µmol and 7.077 µmol and 7.054 µmol
[3]; 300 min
  drug eluted from DC Bead LUMI: 9.987 µmol and 9.178 µmol and 9.242 µmol
[3]; 360 min
  drug eluted from DC Bead LUMI: 12.6965 µmol and 11.2108 µmol and 10.9569 µmol
[3]; 420 min
  drug eluted from DC Bead LUMI: 14.5125 µmol and 12.8898 µmol and 12.4195 µmol
[3]; 480 min
  drug eluted from DC Bead LUMI: 16.4266 µmol and 14.4776 µmol and 14.2688 µmol
[3]; 1440 min
  drug eluted from DC Bead LUMI: 47.172 µmol and 44.3546 µmol and 42.6335 µmol
[3]; 2880 min
  drug eluted from DC Bead LUMI: 68.0842 µmol and 61.0855 µmol and 60.2496 µmol
[3]; 4320 min
  drug eluted from DC Bead LUMI: 76.8802 µmol and 71.2335 µmol and 68.2708 µmol
[3]; 8640 min
  drug eluted from DC Bead LUMI: 74.6523 µmol and 73.8043 µmol and 71.6405 µmol
[3]
  release behaviour in saline: slow release
[3]; Figure 11 legend, mean ± SD, n = 3
  Dox released from DC Bead LUMI: 74.4 ± 0.5 µmol Dox/ mL DC Bead LUMI
[6]
  time to load drug to DC Bead LUMI: 2 to 3 h
[7]
  previously reported amount of Dox loaded into LC Bead: 39.0 ± 3.8 mg/mL
